Tests used:
PKG-1α [1] = molecular target: T1, PKG-1α (Homo sapiens, UniProt Q13976); test: PKG protein levels and PKG activity in transfected PASMC; format: cell-based; conditions: PASMC transfected with WT-PKG-1α, SIN-1 500 μM 48 h
T1 construct: transfected with an expression plasmid containing a full length WT-PKG-1α cDNA; made in house; host or cells: HEK-293T (methods); the results paragraph b527 says PASMC
T1 sequence (Q13976 2-671): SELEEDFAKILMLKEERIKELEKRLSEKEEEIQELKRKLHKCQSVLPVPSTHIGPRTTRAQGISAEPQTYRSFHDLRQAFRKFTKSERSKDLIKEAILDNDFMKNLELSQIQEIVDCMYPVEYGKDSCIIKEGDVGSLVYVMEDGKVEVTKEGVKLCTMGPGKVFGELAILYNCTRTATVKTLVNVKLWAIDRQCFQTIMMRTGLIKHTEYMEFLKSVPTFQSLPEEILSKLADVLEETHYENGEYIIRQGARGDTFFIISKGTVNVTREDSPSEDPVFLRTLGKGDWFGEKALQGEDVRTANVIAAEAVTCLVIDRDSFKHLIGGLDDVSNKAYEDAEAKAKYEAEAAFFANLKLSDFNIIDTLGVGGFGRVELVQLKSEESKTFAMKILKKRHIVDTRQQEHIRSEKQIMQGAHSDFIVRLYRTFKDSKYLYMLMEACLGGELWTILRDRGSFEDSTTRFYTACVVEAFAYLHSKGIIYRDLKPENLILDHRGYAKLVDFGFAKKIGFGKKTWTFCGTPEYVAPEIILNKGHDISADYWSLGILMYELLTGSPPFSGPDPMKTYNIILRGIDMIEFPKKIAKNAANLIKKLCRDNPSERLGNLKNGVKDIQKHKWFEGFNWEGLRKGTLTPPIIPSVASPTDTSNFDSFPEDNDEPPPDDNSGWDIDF
Procedure: Therefore, the effect of these events were investigated in PASMC transiently transfected with expression plasmids containing WT- and Y247F-PKG-1α. The effect of nitration on pulmonary arterial smooth muscle cell (PASMC) growth and metabolism was determined. PASMC were transiently transfected with expression plasmids containing WT-PKG-1α, Y247F-PKG-1α or pDEST40 (as a control) for 20 h. Cells were then exposed or not to SIN-1 (500 μM, 48 h) and the effect on PKG protein levels (FIG. 17A) and activity determined (FIG. 17B).
Cells were prepared as previously described (Sud, N., et al., American Journal of Physiology 293, L1444-1453 (2007); Sharma, S., et al., American Journal of Physiology 294, L46-56 (2008)). Briefly, the cellular protein extracts were prepared by homogenizing the cells in lysis buffer (50 mM Tris-HCl, pH 7.6, 0.5% Triton X-100, and 20% glycerol) containing Halt protease inhibitor cocktail (Pierce, Rockford, Ill.). The extracts were then clarified by centrifugation (20,000 g for 20 min at 4° C.). […] Reactive bands were visualized using chemi-luminescence (Pierce Laboratories, Rockford, Ill.) on a Kodak 440CF image station. The band intensity was quantified using Kodak 1D image processing software. […]
Measurement of PKG Catalytic Activity Total PKG activity was determined using a non-radioactive immunoassay in cell lysates, according to the manufacturer's directions. […]

PKG-1α [2] = test: PKG-1α nitration (IP, 3-NT blot) in transfected HEK-293T cells; format: cell-based, human; conditions: HEK-293T expressing Y247F- or Y425F-PKG-1α, SIN-1 500 μM 30 min
Procedure: (§1) Cells were homogenized in 3× weight/volume of IP buffer (25 mM Hepes, pH 7.5, 150 mM NaCl, 1% NP-40, 10 mM MgCl2, 1 mM EDTA, 2% glycerol, supplemented with protease inhibitor). The homogenates were then centrifuged at 20,000 g at 4° C. for 20 min, the supernatant was collected, and the protein concentration was quantified by the Bio-Rad DC Protein Assay. To 1000 μg of total protein, 4 μg of antibody against PKG-1α was added; the volume was brought to 1 ml with IP buffer, and the mixture was nutated at 4° C. overnight. To precipitate the bound protein, 30 μl of protein G plus agarose suspension (EMD biosciences, Inc., San Diego, Calif.) was added, and the samples were nutated for 2 h at 4° C. To collect the bead-bound antibody, the samples were then centrifuged at 2000 g for 5 min at 4° C., the supernatant was removed, and the beads were washed 3× with 500 μl of IP buffer. […]
(§2) To determine the role of tyrosine 247 and tyrosine 425 in mediating the nitration dependent inhibition of PKG-1α kinase activity, Y247F- and Y425F-PKG-1α mutants were generated and expressed in HEK-293T cells. […] Protein extracts were immunoprecipitated using an antibody raised against PKG-1α and the level of nitrated PKG-1α determined by probing the membranes with an antiserum raised against 3-NT. […]

PKG-1α [3] = molecular target: T1, PKG-1α; test: as above; format: cell-based; conditions: HEK-293T expressing WT-PKG-1α, SIN-1 500 μM 30 min
Procedure: as §1, §2

In the case of “3-morpholinosydnonimine N-ethylcarbamide [SIN-1]”, the “cGMP dependent increase in PKG activity, WT-PKG-1α cells” value (PKG-1α [1]) is reported as “attenuated”, the “Nitration levels of Y247F- or Y425F-PKG-1α” value (PKG-1α [2]) is reported as “no significant increases” and the “Nitration of WT-PKG-1α” value (PKG-1α [3]) is reported as “significantly increased”.

Reference: patent US9447157B2, “Nitration shielding peptides and methods of use thereof” (Augusta University Research Institute, Inc., priority 2013, dated 2016)
